Experiments:
Numb = assay: Immunofluorescence of Numb in MDA-MB-231 breast cancer cells; type: cell-based; conditions: MDA-MB-231 cells; 0.01, 0.1, 1 or 10 μM
Protocol: (§1) MDA-MB-231 breast cancer cells were treated either with vehicle (control) or with 0.01 μM, 0.1 μM, 1 μM or 10 μM final concentration of doxorubicin, taxotere or KSA-101696. Then, the cells were cytospun to glass slides by centrifugation at 800 rpm for 3 min. Slides were then air-dried overnight and 4% formaldehyde fixed for 10 min. For staining, the cell membrane was permeabilized with 0.5% triton-X (Sigma) followed by overnight incubation with primary antibodies (anti-Numb, Abcam) and (anti-intracellular Notch-1, Cell Signalling) at 1:100. Cells were washed and stained with AlexaFluor goat anti-rabbit IgG 488 (Invitrogenat) 1:400 for 30 minutes. 300 nM DAPI (Invitrogen, Carlsbad, Calif., USA) was added for 10 minutes to counterstain the nuclei. Slides were mounted and immunofluorescence was visualized using BD Pathway 855 microscope.
(§2) Numb exerts its functional role on cell fate decisions by antagonizing Notch signaling activities. The molecular mechanisms underlying this relationship appear to rely on the ubiquitination of the membrane bound Notch-1 receptor and the subsequent degradation of its NICD (Notch intracellular domain) following receptor activation.

intracellular Notch-1 = assay: Immunofluorescence of intracellular Notch-1 in MDA-MB-231 breast cancer cells; type: cell-based; conditions: MDA-MB-231 cells; 0.01, 0.1, 1 or 10 μM
Protocol: as §1, §2

[1] = Determination of LD50 value; conditions: male, Swiss Webster Albino, mouse, in vivo, ip
Protocol: Swiss Webster Albino mice were housed in groups of 2 or 4 in elevated steel wire-mesh cages in a controlled room maintained at a temperature of 22±2° C., relative humidity of 50±10% and a 12 h light-dark cycle. Rodent diet chow (feed) provided by Grain Silos Flour Mills Organization, Riyadh, Saudi Arabia, and tap water for drinking were made available ad lib.
Male mice were divided into various groups (n=10 animals per group). Each group was administered a different dose of the respective compound via the intraperitoneal (i.p.) route. The dose range used was 100-5000 mg/kg.
During the observation periods there was a continuous record of any behavioral changes and clinical symptoms that caused by effects on the central and autonomic nervous systems, the respiratory and the cardiovascular systems or any other action on the gastrointestinal tract, the renal systems, eye, skin, skeletal muscles etc.
During the 72 hour observation period the number of animals that died in every group was recorded. The percentage of death calculated and converted to probits to calculate the LD50 value for each compound in mg/kg. The LD50 value reported in this study provided compounds in their liquid form in the provided concentrations.

SMILES | Numb expression (immunofluorescence microscopy) (Numb) | Notch self-renewal pathway (intracellular Notch-1) | LD50 at 72 h [1] [mg/kg]
COc1cccc2c1C(=O)c1c(O)c3c(c(O)c1C2=O)C[C@@](O)(C(=O)CO)C[C@@H]3O[C@H]1C[C@H](N)[C@H](O)[C@H](C)O1 [Doxorubicin] | inhibited Numb expression | activated the Notch self-renewal pathway | 60
CC(=O)O[C@@]12CO[C@@H]1C[C@H](O)[C@@]1(C)C(=O)[C@H](O)C3=C(C)[C@@H](OC(=O)[C@H](O)[C@@H](NC(=O)OC(C)(C)C)c4ccccc4)C[C@@](O)([C@@H](OC(=O)c4ccccc4)[C@H]21)C3(C)C [taxotere] | inhibited Numb expression | activated the Notch self-renewal pathway | 
